In patent US6787519B2, “Methods of treating disorders related to apoE” (The Regents of the University of California, priority 2000, dated 2004):
Square brackets hold non-standard residues; d marks the D form. Peptide text beside a SMILES is read from it. * marks the point of attachment. Sta = CC(C)C[C@H](N)[C@@H](O)CC(=O)O; Isovaleryl = CC(C)CC(=O)*

Assays:
[1] = tested on: Neuro2a cells expressing apoE4; assay: formation of apoE and p-tau immunoreactive intracellular inclusions after Aβ or ER stress inducers; format: cell-based, mouse; settings: untreated 2.7±1.2%; p<0.001
Method: (§1) Cell cultures—Murine neuroblastoma (Neuro-2a) cells were obtained from American Type Culture Collection (Rockville, Md.). Neuro-2a cells were maintained at 37° C. in a humidified 5% CO2 incubator in MEM-containing 10% FBS, supplemented with non-essential amino acids, penicillin, and streptomycin.
(§2) Transient transfection of cells—Neuro-2a, NT2-N, or cultured mouse primary neurons were transiently transfected with various apoE cDNA constructs, as listed in Table I, by using lipofectamine method. Briefly, 2 μg of apoE DNA were pre-incubated with 7 μl of lipofectamine in 200 μl of serum-free MEM containing N2-supplements at room temperature for 30 minutes. After addition of 800 μl of serum-free MEM containing N2-supplements, the mixture was added into the cells that had been washed three times with serum-free MEM. Ten to forty-eight hours later, the transfected cells were used for different experiments.
(§3) Immunocytochemistry—Neuro-2a cells were grown in 2-well chamber slides for 24 hours and were then transiently transfected with different apoE3 or apoE4 DNA constructs, as described above. After washing twice in PBS, the transfected cells were fixed with 3% paraformaldehyde in PBS for 30 minutes at room temperature, washed twice in PBS, and then permeabilized with Triton-X100 for 5 minutes which was followed by three washes in PBS.
(§4) To block nonspecific reactions, all slides were incubated for 1 hour at room temperature with PBS containing 2% BSA and 10% normal serum (Vector) derived from the same species as the source of secondary antibody (sheep or rabbit), followed by a 1-hour incubation with the primary antibody (monospecific rabbit anti-human apoE, 1:500; monoclonal anti-p-tau, 1:100-1:1000, anti-p-NF—H, 1:100-1:500) in PBS containing 2% BSA.
(§5) Slides were then washed three times in PBS containing 2% BSA and incubated for 1 hour at room temperature with the secondary antibody (FITC-coupled anti-rabbit IgG to detect antigen-bond anti-human apoE, Rodamine- or Cy5-coupled anti-mouse IgG to detect antigen-bond anti-p-tau or anti-p-NF—H). After three washes in PBS containing 2% BSA, immunofluorescently labeled slides were mounted in VectaShield (Vector) and viewed with a MRC-1024 laser scanning confocal system (Bio-Rad) mounted on an Optiphot-2 microscope (Nikon, Tokyo, Japan).
(§6) Since Aβ deposition is a major pathological component within the brains of Alzheimer's disease patients, we determined the effect of Aβ treatment on the formation of apoE and p-tau immunoreactive intracellular inclusions in Neuro2a cells expressing apoE.
(§7) Since Aβ treatment of cells can cause ER stress (TN98), other ER stress inducers, including Brefeldin A (BfA) and tunicamycin (TN98), were used to determine whether ER stress can increase the formation of intracellular inclusions in apoE transfected Neuro2a cells. Incubation with either BfA or tunicamycin increased the inclusion-positive cells from 2.7±1.2% to 7.2±2.1% (p<0.001) in apoE4 expressing cells and from 0% to 3.2±1.1% (p<0.001) in apoE3 expressing cells.

[2] = tested on: Neuro2a cells expressing apoE3; assay: as above; format: cell-based, mouse; settings: untreated 0%; p<0.001
Method: as §1, §2, §3, §4, §5, §6, §7

apoE cleavage enzyme [3] = assay: cleavage of apoE4 in the presence of known protease inhibitors, anti-apoE western blot; format: biochemical, mouse
Method: To test this hypothesis, purified human apoE3 or apoE4 were incubated with brain lysates of apoE knockout mice at 37° C. for 3 hours and the proteolysis of apoE was analyzed by anti-apoE western blot.
To determine the biochemical properties of the putative apoE cleavage enzyme, we tested the effects of different known inhibitors for four major categories of proteases, i.e., serine proteases, cysteine proteases, aspartate proteases, and metalloproteases.

apoE cleavage enzyme [4] = assay: inhibition of apoE4 cleavage by partially purified apoE cleavage enzyme, anti-apoE western blot; format: biochemical, mouse; settings: peptide 1 mM, 4 μg apoE4, 3 hours at 37° C.
Excerpt: The peptides Ala-Ala-Pro-Phe (SEQ ID NO:1) and Ala-Ala-Pro-Leu (SEQ ID NO:3) were further tested for the inhibition of apoE cleavage. […] Thus, both Ala-Ala-Pro-Phe (SEQ ID NO:1) and Ala-Ala-Pro-Leu (SEQ ID NO:3) can be used as peptide inhibitors for the apoE cleavage enzyme.

apoE cleavage enzyme [5] = assay: chromogenic assay with Ala-Ala-Pro-Phe-p-nitroanilide as substrate; format: biochemical, mouse; settings: 1 mM Ala-Ala-Pro-Phe-p-nitroanilide substrate
Method: To monitor the cleavage activity, a chromogenic group (p-nitroanilide) was added to the carboxyl-side of the last amino acid at the C-terminus. If the enzyme cuts the bond between the last amino acid and p-nitroanilide, the released p-nitroanilide will yield a yellow color, which can be monitored by a spectrophotometer at about 390-410 nm.
Importantly, a proline at the P2 position and two hydrophobic amino acids (such as alanine, Ala) at the P3 and P4 positions are critical for determining the efficiency of the cleavage. Taken together, the putative apoE cleavage enzyme is a chymotrypsin-like serine protease, which recognizes the motif of Ala-Ala-Pro-Phe (SEQ ID NO:1), Ala-Ala-Pro-Met (SEQ ID NO:2), Ala-Ala-Pro-Leu (SEQ ID NO:3), or a similar sequence in the substrate peptides or proteins. By using Ala-Ala-Pro-Phe-p-nitroanilide as a substrate, the chromogenic assay can be used as a high-throughput method to screen drugs, agents, or chemical compounds that inhibit apoE cleavage activity. Para-nitroanilide is detected spectrophotometrically at about 390-410 nm.
By using the chromogenic assay, in which 1 mM Ala-Ala-Pro-Phe-p-nitroanilide was used as the substrate, we screened many peptides towards the inhibition of the apoE cleavage enzyme activity.

[6] = tested on: Neuro-2a cells expressing apoE3 or apoE4; assay: generation of carboxyl-terminal truncated apoE in cells incubated with Aβ1-42, immunoprecipitation and anti-apoE western blotting; format: cell-based, mouse; settings: more so with apoE4
Method: Immunoprecipitation and western blotting—Neuro-2a cells were grown to 80% confluence in 6-well plates or 15-cm dishes and were then transiently transfected with different apoE DNA constructs, as described above. Twenty-four to forty-eight hours later, the cells were harvested and lysed in ice-cold lysis buffer for 30 minutes. After spinning to remove nuclei (13,000 rpm for 15 minutes), apoE in supernatant was immunoprecipitated with monospecific rabbit anti-human apoE antibody and protein-A agarose beads. The immunoprecipitates were washed twice with lysis buffer and three times with PBS. The presence of apoE, p-tau, or p-NF—H in the immunoprecipitates was analyzed by western blotting using the corresponding antibodies. Alternatively, the supernatants of cell lysates were immunoprecipited with monoclonal anti-p-tau or anti-p-NF—H antibodies and, then, the presence of apoE was analyzed by anti-apoE western blotting.
Since Aβ1-42 increased formation of intracellular inclusions in Neuro2a cells expressing apoE4, we next determined whether treatment of the transfected cells with Aβ will increase generation of the carboxyl-terminal truncated form of apoE. Neuro-2a cells expressing apoE3 or apoE4 were incubated with Aβ1-42, then, intracellular apoE was immunoprecipitated and detected by anti-apoE western blotting. […]

Neuro-2a cells [7] = assay: incubation of cells with exogenous recombinant apoE4(Δ272-299) complexed with β-VLDL; format: cell-based, mouse; settings: 30 hours incubation
Method: In human brains, apoE is synthesized and secreted primarily by astrocytes, although human neurons are capable of producing apoE. The secreted apoE can be internalized by neurons. To determine whether internalized apoE4(Δ272-299) can induce formation of NFT-like structures in neurons. Neuro-2a cells were incubated with recombinant apoE4(Δ272-299), which had been complexed with the lipid transport vehicle β-VLDL. After 30 hours incubation, neurite outgrowth and the formation of NFT-like structures in the cells were determined. […] These structures were identical to the tangle-like structures formed in Neuro-2a cells expressing GFP-apoE4(Δ272-299) in the cytosol. Therefore internalized apoE4(Δ272-299) can escape the endosomal-lysosomal pathway and interact with cytosolic p-tau and p-NF—H.

Neuro-2a cells [8] = assay: formation of intracellular inclusions / NFT-like structures in cells transfected with truncated apoE constructs; format: cell-based, mouse; settings: constructs with deletion of 28 carboxyl-terminal amino acids
Method: as §1, §2
Immunocytochemistry—Neuro-2a cells were grown in 2-well chamber slides for 24 hours and were then transiently transfected with different apoE3 or apoE4 DNA constructs, as described above. […]
For the cells transiently transfected with GFP-apoE DNA constructs, after fixed in 3% paraformaldehyde and washed twice in PBS, the green fluorescence was viewed directly with a MRC-1024 laser scanning confocal system (Bio-Rad) as described above. […]

[9] = 6 mM peptide, 20 hour incubation

C[C@H]1CCC/C=C/[C@@H]2C[C@H](O)C[C@H]2[C@H](O)/C=C/C(=O)O1 [BfA, Brefeldin A]
inclusion-positive apoE4 expressing cells after treatment [1]: 7.2±2.1% | inclusion-positive apoE3 expressing cells after treatment [2]: 3.2±1.1%

CC(C)C[C@H](NC(=O)[C@H]1O[C@@H]1C(=O)O)C(=O)NCCCCN=C(N)N [E-64]
inhibition of the cleavage of apoE4 (apoE cleavage enzyme [3]): did not inhibit

O=C(O)CN(CCOCCOCCN(CC(=O)O)CC(=O)O)CC(=O)O [EGTA]
inhibition of the cleavage of apoE4 (apoE cleavage enzyme [3]): did not inhibit

O=S(=O)(F)Cc1ccccc1 [PMSF]
inhibition of the cleavage of apoE4 (apoE cleavage enzyme [3]): totally abolished

CC(C)CC(=O)N[C@H](C(=O)N[C@H](C(=O)N[C@@H](CC(C)C)[C@@H](O)CC(=O)N[C@@H](C)C(=O)N[C@@H](CC(C)C)[C@@H](O)CC(=O)O)C(C)C)C(C)C [pepstain] (Isovaleryl-VV[Sta]A[Sta]-OH)
inhibition of the cleavage of apoE4 (apoE cleavage enzyme [3]): did not inhibit

Ala-Ala-Pro-Leu (AAPL; OTHER INFORMATION: synthetic peptide)
inhibition of apoE cleavage (apoE cleavage enzyme [4]): significant inhibition | inhibition of apoE cleavage enzyme activity (apoE cleavage enzyme [5]; [9]): 56%

Ala-Ala-Pro-Phe (AAPF; OTHER INFORMATION: synthetic peptide)
inhibition of apoE cleavage (apoE cleavage enzyme [4]): significant inhibition | inhibition of apoE cleavage enzyme activity (apoE cleavage enzyme [5]; [9]): 67%

Aβ1-42: amyloid beta (Aβ) peptide 1-42
amounts of the carboxyl-terminal truncated forms of both apoE3 and apoE4 [6]: significantly increased | inclusion-positive apoE4 expressing cells after treatment [1]: 6.7±1.5% | inclusion-positive apoE3 expressing cells after treatment [2]: 2.8±0.6%

apoE4 (Δ272-299): apoE4 with deletion of 28 carboxyl-terminal amino acids
neurite outgrowth (Neuro-2a cells [7]): did not show neurite outgrowth | formation of NFT-like structures (Neuro-2a cells [7]; anti-apoE immunofluorescent staining): NFT-like structures were formed | transfected cells displaying the intracellular filamentous inclusions (Neuro-2a cells [8]): 78±8%

apoE4: human apolipoprotein E isoform apoE4, full-length
inhibition of apoE cleavage enzyme activity (apoE cleavage enzyme [5]; 7 μM apoE4): 89%

tunicamycin
inclusion-positive apoE4 expressing cells after treatment [1]: 7.2±2.1% | inclusion-positive apoE3 expressing cells after treatment [2]: 3.2±1.1%
